Experimental data as given in patent US20260042801A1, “COMPOSITIONS AND METHODS FOR DYE-BOUND CYCLIZED PEPTIDES FOR MEDICAL USE” (The Texas A&M University System, priority 2022, published 2026).

Key:
TrkB = biological target: T1, TrkB (Homo sapiens, UniProt Q16620); assay: Cell-associated fluorescence saturation binding, TrkB-HEK293 cells; conditions: 2.5 h, with and without 0.6 nM BDNF
T1 construct: expressed in transfected cells; host or cells: HEK293 (TrkB-HEK293)
Protocol: FIG. 2: 5c(i) binds to TrkB and TrkC receptors. Transfected cell lines that are Trk positive cells (TrkB-HEK293 and TrkC-NIH/3T3) and non-transfected cell lines that are Trk negative cells (HEK293 and NIH/3T3) were seeded approximately 2,000 cells/well in a 96-well plate and incubated for 24 hours. The cells were treated with a serial dilution of compound (0, 10, 25, 50, 100, 200, 500, and 1000 nM) in serum-free media (SFM) with and without A) 0.6 nM of BDNF (TrkB-HEK293 and HEK293) and B) 0.2 nM of NT-3 (TrkC-NIH/3T3 and NIH/3T3) for 2.5 h. After that, the cells were washed with PBS once to remove unbound compounds and dissolved in 1% (w/v) aqueous sodium dodecyl sulfate. Cell-associated fluorescence was then determined by measuring the emission of the resulting solution upon λex (540/25 nm) and λem (620/40 nm) using Agilent BioTek Synergy H4 Hybrid Microplate Reader. Kd was calculated by GraphPad Prism 9 using Binding saturation (One site—Specific binding).
Transfected cell lines that are Trk positive cells (TrkA-HeLa, TrkB-HEK293, and TrkC-NIH/3T3) and non-transfected cell lines that are Trk negative cells (HeLa, HEK293, and NIH/3T3) were seeded at 2,000 cells/well in a 96-well plate (0.32 cm^2 growth area) and incubated inside a 5% CO2 incubator at 37° C. for 24 hours. […] The dissociation constant (Kd) was calculated using binding saturation (One site—Specific binding).

C3 = assay: Astrocyte C3 staining (fluorescent intensity); assay type: cell-based, mouse; conditions: astrocytes from 6-month-old male mice, 5 μM, 3 days
Protocol: FIGS. 4A-4D: 5c(i) induces Synapsin I production and reduces C3 and GSK-3s expression from astrocytes promoting neuron survival and neurite growth. Primary adult cortical astrocytes from 6-month-old male mice were incubated with 5 μM 5c(i) for 3 days. Graph represents mean±SEM of percent change in fluorescent intensity (Synapsin I and C3) or chemiluminescence (GSK-3β) relative to Vehicle (4A and 4D). Images represent the 4B) Vehicle and 4C) 5 μM 5c(i) treated groups stained with Synapsin I and DAPI. D) Cortical astrocytes from 6-month-old male mice were plated and treated with 5c(i) or Vehicle for 2 days. Cells were then washed and cortical neurons from 6-month-old male mice were added on top of the astrocytes. […] Scale bar=50 μm.
To determine if 5c(i) can modulate astrocytes, adult astrocytes from 6-month-old male mice were treated with 5c(i) for 3 days and stained with Synapsin I and C3 to measure changes in fluorescent intensity or western blot was conducted on the cell lysate to assess changes in GSK-3β expression (FIG. 4). […] To determine if 5c(i) treated astrocytes can directly benefit neuronal recovery, astrocytes were cultured with 5c(i) for 2 days before removing 5c(i) from the culture and plating adult neurons on top of the astrocytes for 2DIV, resulting in increased neuron survival and neurite growth. […]

[1] = tested on: severe T8 contusion/compression SCI; assay: Preclinical SCI model: locomotor test (BMS) and survival; assay type: in vivo, mouse; conditions: IP daily 5 and 25 mg/kg/day
Protocol: FIG. 8: Timeline of the preclinical in vivo animal study conducted as evidence of claims. Mice underwent baseline cognitive testing and blood collection immediately before SCI. Mice sustained an SCI at 8 weeks of age. SCI model: thoracic-8 contusion (50 kdyne impact) and compression ([…]), a severe contusion/compression model that accurately represents injuries seen in the clinic. 5c(i) (5 or 25 mg/kg/day) or Vehicle were administered IP daily starting 4 hours post injury to reflect the delay found in the clinic. Locomotor behavioral testing (BMS and Rotarod) were conducted weekly for 7 weeks. 7 weeks after injury, the mice underwent cognitive behavioral testing (NOR and Y-maze) and blood collection once again. Mice were euthanized 7 weeks after sustaining an SCI and underwent perfusion and tissue preparations for further analysis.
9A) BMS Score and 9B) BMS Sub Score were recorded and graphed in relation to time after injury. 9C) Percent of mice surviving at 49 days post injury. […] N=6-8. Graphs show mean and SEM. […] Student's T-test.
Open Field Basso Mouse Scale (BMS): Mice were placed in an open field for 5 minutes to allow mice to freely roam to visually evaluate (by 2 individuals) the following parameters: ankle movements, stepping pattern, coordination, paw placement, trunk instability, and tail position. The mice were scored according to the BMS scoring system^59 with a minimum score of 0 (no movement) to a maximum score of 9 (normal locomotion) followed by the BMS Sub score (assessing stepping patterns, tail movement, trunk posture, paw position, and coordination)^12,60. Rotarod: Mice were placed on a rod rotating at increasing speeds from 5 to 45 rotations per minute (rpm) in a 3-minute interval with constant acceleration to assess strength, endurance, and motor coordination^12,60. Mice were first acclimated to the rotarod with 5 habituation sessions the week before injury. Baseline testing was conducted 1 day before injury. […]

[2] = tested on: severe T8 contusion/compression SCI; assay: Preclinical SCI model: Novel Object Recognition (NOR); assay type: in vivo, mouse; conditions: 7 weeks post injury, 24-hr interval
Protocol: 8-week-old male mice with a severe T8 contusion/compression SCI were injected IP daily with 5c(i) for 7 weeks (5 and 25 mg/kg/day). 7 weeks post injury, NOR was conducted. 10A) The total number of independent visits to novel object. 10B) Latency to visit novel object. 10C) The ratio of time spent with objects (novel/familiar ratio). […] N=6-8. Graphs show mean and SEM. # (p<0.1) * (p<0.05) ** (p<0.01) *** (p<0.001) **** (p<0.0001). Student's T-test.
Male mice at 8 weeks of age underwent surgery to sustain an SCI. The spinalis thoracis muscle was lacerated to perform a laminectomy at T7-T9 to expose the spinal cord while keeping the dura intact. The mice were then clamped using 2 pairs of Adson forceps before using the Infinite Horizon Impactor at 50 kdyn of force (the contusion) with a 2 second dwell time (the compression) to induce a severe T8 contusion and compression. Self-degrading Catgut sutures were utilized for the closure of the spinalis thoracis muscle before the skin was glued shut with 3M VETBOND™ (n-butyl cyanoacrylate adhesive veterinary tissue adhesive) Tissue Adhesive. All procedures and instruments used for surgery were sterilized prior to surgery to prevent infections. After surgery, mice recovered in a warmed cage and then moved to a cage set at room temperature provided with food and water ad libitum. All surgeries were performed in the morning (8 am-12 pm) to limit potential circadian clock impact. Behavioral assays were performed at the same time in the morning for all the cohorts for the same reason. For the administration of pharmaceutical agents, the vehicle was 0.6 mL/kg of 100% dimethyl sulfoxide (DMSO). 5c(i) (at 5 and 25 mg/kg/day) diluted in vehicle or vehicle alone was administered once daily through intraperitoneal (IP) injections at a volume of 0.6 mL/kg/day. […]
7 weeks after SCI, all post injury cognitive testing was conducted. Novel Object Recognition (NOR): Mice were placed in the empty open field white box for 5 min and recorded. […] Behavioral patterns with respect to the novel and familiar objects was recorded and analyzed. […]

T1 sequence (Q16620 32-822, species assumed): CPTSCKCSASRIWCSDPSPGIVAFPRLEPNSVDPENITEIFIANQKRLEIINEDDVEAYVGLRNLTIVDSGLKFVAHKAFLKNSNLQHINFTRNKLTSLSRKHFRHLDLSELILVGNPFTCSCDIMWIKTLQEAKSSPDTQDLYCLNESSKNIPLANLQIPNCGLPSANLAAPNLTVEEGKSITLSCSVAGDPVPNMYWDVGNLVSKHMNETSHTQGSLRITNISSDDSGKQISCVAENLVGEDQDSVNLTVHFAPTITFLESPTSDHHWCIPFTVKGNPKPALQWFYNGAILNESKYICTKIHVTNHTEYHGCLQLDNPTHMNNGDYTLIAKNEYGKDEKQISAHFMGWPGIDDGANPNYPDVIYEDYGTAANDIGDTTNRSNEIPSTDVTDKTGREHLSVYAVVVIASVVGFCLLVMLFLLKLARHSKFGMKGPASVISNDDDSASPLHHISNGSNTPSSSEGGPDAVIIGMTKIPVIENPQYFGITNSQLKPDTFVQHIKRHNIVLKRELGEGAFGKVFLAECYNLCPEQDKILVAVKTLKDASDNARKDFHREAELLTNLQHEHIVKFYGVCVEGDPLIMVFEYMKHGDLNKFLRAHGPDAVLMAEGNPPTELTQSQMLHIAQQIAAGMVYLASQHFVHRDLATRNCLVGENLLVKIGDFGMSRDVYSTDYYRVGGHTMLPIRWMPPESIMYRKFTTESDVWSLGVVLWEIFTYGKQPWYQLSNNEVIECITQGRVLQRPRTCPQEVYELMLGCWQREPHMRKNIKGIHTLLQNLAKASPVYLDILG

C-DIRG-C BODIPY® (fluorescent dye) [5c(i)]
affinity for TrkB (Kd) (TrkB): low nanomolar affinity | C3 expression (C3): reduction | mice surviving at 49 days post injury [1]: improves survival | BMS Sub score ([1]; 7 weeks): significantly improved | BMS score ([1]; 7 weeks): significantly improved | latency to visit novel object [2]: reduced latency to visit | preference for the novel object [2]: increased preference | visits to novel object [2]: more visits
